Read-outs that look alike come from different tables or passages of the source.

The experiment relates to CD8+ T cells. It is filed as cell-based, human.

On to `CC[C@H](C)[C@H](NC(=O)[C@@H](N)CC(N)=O)C(=O)N[C@@H](CCCNC(=N)N)C(=O)N[C@@H](CCC(N)=O)C(=O)N[C@@H](C)C(=O)NCC(=O)N[C@H](C(=O)N[C@@H](CCC(N)=O)C(=O)N[C@@H](Cc1ccc(O)cc1)C(=O)O)C(C)C`, for which the “# SFU” value (donor D481 (active TB)) is on record as 1715 SFU/250,000 CD8+ T cells.
Take `CC(C)C[C@H](NC(=O)[C@H](Cc1ccc(O)cc1)NC(=O)[C@H](CO)NC(=O)[C@H](CCC(N)=O)NC(=O)[C@H](C)NC(=O)[C@@H](NC(=O)[C@@H]1CCCN1C(=O)[C@H](CO)NC(=O)[C@H](C)N)C(C)C)C(=O)O`: the “# SFU” value (donor D432 (active TB)) is reported as 210 SFU/250,000 CD8+ T cells.
With `CC[C@H](C)[C@H](NC(=O)[C@H](Cc1c[nH]cn1)NC(=O)[C@H](C)NC(=O)[C@H](CC(=O)O)NC(=O)[C@H](CC(C)C)NC(=O)[C@@H](N)CC(C)C)C(=O)N1CCC[C@H]1C(=O)N[C@@H](CCC(N)=O)C(=O)N[C@@H](CC(C)C)C(=O)O`, where the note is “donor D504 (LTBI)”, the “# SFU” value was <10 SFU/250,000 CD8+ T cells.
In the case of `CC(C)[C@H](NC(=O)[C@H](C)NC(=O)[C@H](C)NC(=O)[C@H](CCC(N)=O)NC(=O)[C@H](C)NC(=O)[C@H](C)NC(=O)[C@@H](N)[C@@H](C)O)C(=O)N[C@H](C(=O)N[C@@H](CCCNC(=N)N)C(=O)N[C@@H](Cc1ccccc1)C(=O)O)C(C)C`, the “# SFU” value is 258 SFU/250,000 CD8+ T cells.
The same measure, in the same setting: as for `CSCC[C@H](NC(=O)[C@H](CCC(=O)O)NC(=O)[C@H](C)N)C(=O)N[C@@H](CCCCN)C(=O)N[C@H](C(=O)N[C@@H](CC(=O)O)C(=O)N[C@@H](C)C(=O)N[C@@H](C)C(=O)N[C@H](C(=O)N[C@@H](CC(C)C)C(=O)N[C@@H](C)C(=O)O)[C@@H](C)O)[C@@H](C)O`, the figure is 1993 SFU/250,000 CD8+ T cells; as for RADEEQQQAL, 120 SFU/250,000 CD8+ T cells.
With `CC[C@H](C)[C@H](NC(=O)[C@@H](NC(=O)[C@H](C)N)C(C)C)C(=O)N[C@@H](CC(N)=O)C(=O)N[C@H](C(=O)N[C@H](C(=O)N[C@@H](CS)C(=O)N[C@@H](CC(N)=O)C(=O)N[C@@H](Cc1ccc(O)cc1)C(=O)NCC(=O)N[C@@H](CCC(N)=O)C(=O)O)[C@@H](C)O)[C@@H](C)O`, for the setting “donor D454 (LTBI)”, the “# SFU” value is recorded as 24 SFU/250,000 CD8+ T cells.
For the compound `CSCC[C@H](NC(=O)[C@H](CCC(=O)O)NC(=O)[C@H](C)N)C(=O)N[C@@H](CCCCN)C(=O)N[C@H](C(=O)N[C@@H](CC(=O)O)C(=O)N[C@@H](C)C(=O)N[C@@H](C)C(=O)O)[C@@H](C)O`, the “# SFU” value (donor D466 (active TB)) is 2458 SFU/250,000 CD8+ T cells.
With ELPQWLSANR, the “# SFU” value is listed as <10 SFU/250,000 CD8+ T cells.
As to `CSCC[C@H](NC(=O)[C@@H](N)CCC(=O)O)C(=O)N[C@@H](CCCCN)C(=O)N[C@H](C(=O)N[C@@H](CC(=O)O)C(=O)N[C@@H](C)C(=O)N[C@@H](C)C(=O)N[C@H](C(=O)N[C@@H](CC(C)C)C(=O)O)[C@@H](C)O)[C@@H](C)O`, for the setting “donor D480 (active TB)”, the “# SFU” value is 387 SFU/250,000 CD8+ T cells.
For the compound `CC(C)[C@H](NC(=O)[C@H](Cc1ccccc1)NC(=O)[C@H](CCCNC(=N)N)NC(=O)[C@H](C)NC(=O)[C@H](Cc1c[nH]cn1)NC(=O)[C@H](C)NC(=O)[C@H](C)N)C(=O)N[C@@H](C)C(=O)N[C@@H](C)C(=O)O`, where the note is “donor D454 (LTBI)”, the “# SFU” value is listed as 88 SFU/250,000 CD8+ T cells.
With QTVEDEARRMW, the “#SFU/250,000 CD8+ T-cells” value stood at 84.

Values taken from US9040233B2 (priority 2007, dated 2015).
